In patent US7935722B2 (Eli Lilly and Company, priority 2005, dated 2011):
Where two headings read alike, the source gives them in different places.

Legend:
[1] = target: T1, human AR (androgen receptor) (Homo sapiens, UniProt P10275); experiment: Steroid hormone nuclear receptor binding assay, AR binding
T1 construct: expressed in transfected cells; host or cells: 293 cells (293-AR lysate)
T1 sequence (P10275 1-920): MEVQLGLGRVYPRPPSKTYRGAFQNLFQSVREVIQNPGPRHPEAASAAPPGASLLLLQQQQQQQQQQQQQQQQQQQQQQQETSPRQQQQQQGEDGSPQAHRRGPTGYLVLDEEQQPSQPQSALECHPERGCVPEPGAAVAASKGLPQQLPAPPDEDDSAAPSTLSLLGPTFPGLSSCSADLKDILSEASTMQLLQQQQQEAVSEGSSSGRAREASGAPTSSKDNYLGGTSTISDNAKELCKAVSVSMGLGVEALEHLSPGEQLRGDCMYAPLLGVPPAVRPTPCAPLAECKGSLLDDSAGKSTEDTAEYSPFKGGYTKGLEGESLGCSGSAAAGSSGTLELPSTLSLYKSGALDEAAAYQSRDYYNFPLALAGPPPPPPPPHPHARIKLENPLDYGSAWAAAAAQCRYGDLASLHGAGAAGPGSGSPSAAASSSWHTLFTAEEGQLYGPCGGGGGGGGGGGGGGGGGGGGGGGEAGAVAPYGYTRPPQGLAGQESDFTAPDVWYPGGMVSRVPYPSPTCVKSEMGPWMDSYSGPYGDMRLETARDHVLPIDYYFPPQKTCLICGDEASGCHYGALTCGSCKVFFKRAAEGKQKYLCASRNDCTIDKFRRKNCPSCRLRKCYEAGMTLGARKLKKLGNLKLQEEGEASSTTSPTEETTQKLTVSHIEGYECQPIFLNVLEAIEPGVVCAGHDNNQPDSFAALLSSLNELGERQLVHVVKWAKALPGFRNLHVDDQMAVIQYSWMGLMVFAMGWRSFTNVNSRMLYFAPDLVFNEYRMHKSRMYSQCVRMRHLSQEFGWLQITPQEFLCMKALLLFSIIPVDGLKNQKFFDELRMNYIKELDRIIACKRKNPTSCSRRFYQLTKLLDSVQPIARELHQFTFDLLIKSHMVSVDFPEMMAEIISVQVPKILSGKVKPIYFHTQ
Protocol: Cell lysates from 293 cells overexpressing human GR (glucocorticoid receptor), AR (androgen receptor), MR (mineralocorticoid receptor) or PR (progesterone receptor) are used for competition binding assays to determine Ki values for test compounds. […] Competing compounds are added at various concentrations ranging from about 0.01 nM to 10 μM. Non-specific binding is determined in the presence of 500 nM dexamethasone for GR binding, 500 nM aldosterone for MR binding, or 500 nM methyltrienolone for AR and PR binding. The binding reaction (140 μl) is incubated for overnight at 4° C., then 70 μl of cold charcoal-dextran buffer (containing per 50 ml of assay buffer, 0.75 g of charcoal and 0.25 g of dextran) is added to each reaction. Plates are mixed 8 minutes on an orbital shaker at 4° C. Plates are then centrifuged at 3,000 rpm at 4° C. for 10 minutes. An aliquot of 120 μl of the mix is transferred to another 96-well plate and 175 μl of Wallac Optiphase “Hisafe 3” scintillation fluid is added to each well. Plates are sealed and shaken vigorously on an orbital shaker. After an incubation of 2 hrs, plates are read in a Wallac Microbeta counter. […] The Kd for ^3H-dexamethasone for GR binding, ^3H-methyltrienolone for AR binding, ^3H-aldosterone for MR binding, or ^3H-methyltrienolone for PR binding, is determined by saturation binding. The IC50 values for test compounds are converted to Ki using Cheng-Prusoff equation and the Kd determined by saturation binding assay. […]

[2] = target: T2, human androgen receptor (AR) (Homo sapiens, UniProt P10275); experiment: C2C12 AR/ARE reporter assay; type: cell-based
T2 construct: expressed in transfected cells; host or cells: mouse myoblast C2C12 cells, transiently co-transfected
T2 sequence (P10275 1-920): T1 sequence (P10275 1-920)
Protocol: As an indicator of agonist activity in muscle tissue, the C2C12 AR/ARE reporter assay is performed. Briefly, mouse myoblast C2C12 cells are co-transfected using FuGENE™. […] Cells are transfected in T150 cm^2 flasks in DMEM media with 4% or 10% Fetal Bovine Serum […]. After a 5 hour incubation, transfected cells are trypsinized, plated in 96 well dishes in DMEM media containing 10% charcoal-stripped FBS, incubated for 2 h and then exposed to various concentrations of test compounds ranging from about 0.01 nM to 10 μM. After 48 h of incubations with compounds, cells are lysed and luciferase activity is determined using standard techniques. Data is fit to a 4 parameter-fit logistics to determine EC50 values. The % efficacy is determined versus maximum stimulation obtained with 10 nM methyltrienolone. […]

[3] = C2C12, read-out: C2C12 % Efficacy
[4] = average of n trials, read-out: AR binding Ki
[5] = C2C12 AR/ARE reporter assay, average of n trials, read-out: C2C12 % Efficacy
[6] = C2C12 AR/ARE reporter assay, average of n trials, read-out: C2C12 EC50

Structure (SMILES) | Ki [1] [nM] | EC50 [2] [nM] | Emax [2, 3] [%] | Ki [1, 4] [nM] | Emax [2, 5] [%] | EC50 [2, 6] [nM]
CC(C)C(=O)NC1CCc2c(c3cc([N+](=O)[O-])ccc3n2Cc2cccc(F)c2)C1 (stereo not drawn) [Example 61, N-[9-(3-Fluorobenzyl)-6-nitro-2,3,4,9-tetrahydro-1H-carbazol-3-yl]isobutyramide] | 2.3 | 3.6 | 83.2 |  |  | 
CC(C)C(=O)NC1CCc2c(c3cc(C#N)ccc3n2Cc2csc(Cl)n2)C1 (stereo not drawn) [Example 153, N-[9-(2-Chloro-thiazol-4-ylmethyl)-6-cyano-2,3,4,9-tetrahydro-1H-carbazol-3-yl]-isobutyramide] | 7.8 | 19.3 | 93.3 |  |  | 
Cc1nc(Cn2c3c(c4cc(C#N)ccc42)C[C@H](NC(=O)C(C)C)CC3)cs1 [Example 151, (R)-N-[6-cyano-9-(2-methyl-thiazol-4-ylmethyl)-2,3,4,9-tetrahydro-1H-carbazol-3-yl]-isobutyramide] | 12.4 | 30.4 | 85.6 |  |  | 
CCC(=O)NC1CCc2c(c3cc(OC)ccc3n2Cc2ccccc2)C1 (stereo not drawn) [Example 66, N-(9-Benzyl-6-methoxy-2,3,4,9-tetrahydro-1H-carbazol-3-yl)-propionamide] |  |  |  | 6.9 | 79.8 | 19.2
COc1ccc2c(c1)c1c(n2Cc2cccc(Cl)c2)CCC(NC(=O)C(C)C)C1 (stereo not drawn) [Example 70] | 10 | 39.8 | 63.9 |  |  | 
CC(C)C(=O)NC1CCc2c(c3cc(-c4ccc(N)nc4)ccc3n2Cc2cccc(F)c2)C1 (stereo not drawn) [Example 142] |  |  |  | 31.8 | 61.8 | 23.7
Cc1ncc(-c2ccc3c(c2)c2c(n3Cc3cccc(F)c3)CCC(NC(=O)C(C)C)C2)cn1 (stereo not drawn) [Example 136] | 13.8 | 0.7 | 90.4 |  |  | 
CC(C)C(=O)NC1CCc2c(c3cc(Br)cc(F)c3n2Cc2cccc(F)c2)C1 (stereo not drawn) [Example 120, N-[6-Bromo-8-fluoro-9-(3-fluoro-benzyl)-2,3,4,9-tetrahydro-1H-carbazol-3-yl]-isobutyramide] | 7 | 51.4 | 101 |  |  | 
CC(C)C(=O)N[C@@H]1CCc2c(c3cc(-c4nncs4)ccc3n2Cc2cccc(F)c2)C1 [Example 127, (R)-N-[9-(3-Fluorobenzyl)-6-[1,3,4]thiadiazole-2-yl-2,3,4,9-tetrahydro-1H-carbazol-3-yl]isobutyramide] |  |  |  | 10.4 | 72.2 | 21
CC(C)C(=O)NC1CCc2c(c3c(F)c(C#N)ccc3n2Cc2cccc(F)c2)C1 (stereo not drawn) [Example 116, N-[6-Cyano-5-fluoro-9-(3-fluoro-benzyl)-2,3,4,9-tetrahydro-1H-carbazol-3-yl]-isobutyramide] | 3.4 | 2.7 | 78.3 |  |  | 
CC(C)C(=O)NC1CCc2c(c3c(Cl)c(C#N)ccc3n2Cc2cccc(F)c2)C1 (stereo not drawn) [Example 117, N-[5-Chloro-6-cyano-9-(3-fluoro-benzyl)-2,3,4,9-tetrahydro-1H-carbazol-3-yl]-isobutyramide] | 4.5 | 12 | 76.7 |  |  | 
CC(C)C(=O)NC1CCc2c(c3cc(Cl)ccc3n2Cc2ccccc2N)C1 (stereo not drawn) [Example 106, N-[9-(2-Amino-benzyl)-6-chloro2,3,4,9-tetrahydro-1H-carbazol-3-yl]-isobutyramide] |  |  |  | 8.2 | 82.1 | 2.3
CC(C)C(=O)NC1CCc2c(c3cc(C#N)ccc3n2Cc2cccc(N)c2)C1 (stereo not drawn) [Example 90, N-[9-(3-Amino-benzyl)-6-cyano-2,3,4,9-tetrahydro-1H-carbazol-3-yl]-isobutyramide] | 30.5 | 123 | 67.6 |  |  | 
COc1ccc2c(c1)c1c(n2Cc2ccccc2)CCC(NC(=O)C(C)C)C1 (stereo not drawn) [Example 67, N-(9-Benzyl-6-methoxy-2,3,4,9-tetrahydro-1H-carbazol-3-yl)-isobutyramide] | 6.2 | 18.6 | 96.9 |  |  | 
CCNc1ccccc1Cn1c2c(c3cc(C#N)ccc31)CC(NC(=O)C(C)C)CC2 (stereo not drawn) [Example 112, N-[6-Cyano-9-(2-ethylamino-benzyl)-2,3,4,9-tetrahydro-1H-carbazol-3-yl]-isobutyramide] | 12.7 | 27.2 | 101 |  |  | 
CC(C)C(=O)NC1CCc2c(c3cc(-c4cccnn4)ccc3n2Cc2cccc(F)c2)C1 (stereo not drawn) [Example 138] |  |  |  | 47.3 | 86.8 | 31.1
COC(=O)NC1CCc2c(c3cc(OC(F)(F)F)ccc3n2Cc2cccc(F)n2)C1 (stereo not drawn) [Example 164] |  |  |  | 42.3 | 41.8 | 1230
CC(C)C(=O)NC1CCc2c(c3cc(C(N)=S)ccc3n2Cc2cccc(F)c2)C1 (stereo not drawn) [Example 64, N-(9-(3-Fluorobenzyl)-6-thiocarbamoyl-2,3,4,9-tetrahydro-1H-carbazol-3-yl)isobutyramide] |  |  |  | 14.5 | 89.3 | 9.3
CC(C)Oc1ccc2c(c1)c1c(n2Cc2cccc(F)c2)CCC(NC(=O)C(C)C)C1 (stereo not drawn) [Example 94, N-[9-(3-Fluoro-benzyl)-6-isopropoxy-2,3,4,9-tetrahydro-1H-carbazol-3-yl]-isobutyramide] | 38.3 | 41 | 101 |  |  | 
COC(=O)NC1CCc2c(c3cc(OC(F)(F)F)ccc3n2Cc2cccc(F)c2)C1 (stereo not drawn) [Example 168] |  |  |  | 37 | 56.7 | 280
Cc1nc(Cn2c3c(c4cc(C=O)ccc42)C[C@H](NC(=O)C(C)C)CC3)cs1 [Example 211, (R)-N-[6-Formyl-9-(2-methyl-thiazol-4-ylmethyl)-2,3,4,9-tetrahydro-1H-carbazol-3-yl]-isobutyramide] | 43.7 | 86.7 | 88.4 |  |  | 
CC(C)C(=O)NC1CCc2c(c3cc(C#N)ccc3n2Cc2ccccc2N(C)C)C1 (stereo not drawn) [Example 114, N-[6-Cyano-9-furan-(2-dimethylamino-benzyl)-2,3,4,9-tetrahydro-1H-carbazol-3-yl]-isobutyramide] | 20.8 | 98.7 | 118 |  |  | 
COc1ccc2c(c1)c1c(n2Cc2ccc(F)cc2)CCC(NC(=O)C(C)C)C1 (stereo not drawn) [Example 80] |  |  | 59.9 |  |  | 
COc1ccc2c(c1)c1c(n2Cc2ccccc2OC)CCC(NC(=O)C(C)C)C1 (stereo not drawn) [Example 72] |  |  | 66.4 |  |  | 
COC(=O)c1cccc(Cn2c3c(c4cc(Cl)ccc42)CC(NC(=O)C(C)C)CC3)c1 (stereo not drawn) [Example 84] |  |  | 32.9 |  |  | 
CC(C)C(=O)NC1CCc2c(c3cc(C#N)ccc3n2Cc2cccc([N+](=O)[O-])c2)C1 (stereo not drawn) [Example 88, N-[6-cyano-9-(3-nitro-benzyl)2,3,4,9-tetrahydro-1H-carbazol-3-yl]-isobutyramide] |  |  | 96.1 |  |  | 
COc1cccc(Cn2c3c(c4cc(F)ccc42)CC(NC(=O)C(C)C)CC3)c1 (stereo not drawn) [Example 10] |  |  | 40.4 |  |  | 
COc1ccc(Cn2c3c(c4cc(OC)ccc42)CC(NC(=O)C(C)C)CC3)cc1 (stereo not drawn) [Example 74] |  |  | 22.6 |  |  | 
